Columns and labels:
human mAChR M1 [1] = biological target: T1, human mAChR M1 (Homo sapiens, UniProt P11229); experiment: mAChR M1 cell-based functional assay (calcium mobilization), PAM activity: increase in the EC20 acetylcholine response; details: CHO-K1 cells expressing hM1; potentiation of EC20 acetylcholine response
T1 construct: host or cells: CHO-K1 cells (ATCC), stably transfected using Lipofectamine2000
T1 sequence (P11229 1-460): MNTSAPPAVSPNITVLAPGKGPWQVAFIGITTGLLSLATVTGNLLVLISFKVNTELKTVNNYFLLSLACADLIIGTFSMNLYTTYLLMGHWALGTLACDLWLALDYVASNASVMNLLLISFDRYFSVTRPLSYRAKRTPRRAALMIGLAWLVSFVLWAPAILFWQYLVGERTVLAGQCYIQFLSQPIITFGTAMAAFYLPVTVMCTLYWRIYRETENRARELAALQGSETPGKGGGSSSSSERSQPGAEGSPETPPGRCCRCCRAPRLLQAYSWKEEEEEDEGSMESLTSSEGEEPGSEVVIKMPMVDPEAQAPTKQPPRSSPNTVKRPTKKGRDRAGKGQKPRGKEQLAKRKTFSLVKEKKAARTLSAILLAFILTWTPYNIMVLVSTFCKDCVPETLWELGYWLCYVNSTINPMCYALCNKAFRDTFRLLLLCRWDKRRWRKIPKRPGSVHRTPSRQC
Description: (§1) Chinese hamster ovary (CHO-K1) cells stably expressing rat (r)M1 were purchased from the American Type Culture Collection and cultured according to their indicated protocol. CHO cells stably expressing human (h)M2, hM3, and hM5 were described previously (Levey, et al., 1991); hM1 and hM4 cDNAs were purchased from Missouri S&T cDNA Resource; rM4 cDNA was provided by T. L. Bonner (National Institutes of Health, Bethesda, MID). rM2 and rM3 were cloned from a rat brain cDNA library and sequence verified. hM1, rM2, rM3, hM4, and rM4 cDNAs were used to stably transfect CHO-K1 cells purchased from the American Type Culture Collection using Lipofectamine2000. To make stable rM2, hM2, rM3, hM4, and rM4 cell lines for use in calcium mobilization assays, these cells also were stably transfected with a chimeric G-protein (Gqi5) (provided by B. R. Conklin, University of California, San Francisco) using Lipofectamine 2000. rM1, hM1, rM3, hM3, rM5, and hM5 cells were grown in Ham's F-12 medium containing 10% heat-inactivated fetal bovine serum (FBS), 20 mM HEPES, and 50 μg/mL G418 sulfate. rM2-Gq15, hM2-Gqi5, and hM4-Gqi5 cells were grown in the same medium also containing 500 μg/mL Hygromycin B. Stable rM4-Gqi5 cells were grown in DMEM containing 10% heat-inactivated FBS, 20 mM HEPES, 400 μg/mL G418 sulfate, and 500 μg/mL Hygromycin B.
(§2) For high throughput measurement of agonist-evoked increases in intracellular calcium, CHO-K1 cells stably expressing muscarinic receptors were plated in growth medium lacking G418 and hygromycin at 15,000 cells/20 μL/well in Greiner 384-well black-walled, tissue culture (TC)-treated, clear-bottom plates (VWR). Cells were incubated overnight at 37° C. and 5% CO2. The next day, cells were washed using an ELX 405 (BioTek) with four washes (80 μL) of assay buffer then aspirated to 20 μL. Next, 20 μL of 16 μM Fluo-4/acetoxymethyl ester (Invitrogen, Carlsbad, Calif.) prepared as a 2.3 mM stock in DMSO and mixed in a 1:1 ratio with 10% (w/v) Pluronic F-127 and diluted in assay buffer was added to the wells and the cell plates were incubated for 50 min at 37° C. and 5% CO2. Dye was removed by washing with the ELX 405 (four 80 μL washes of assay buffer) then aspirated to 20 μL. Compound master plates were formatted in an 11 point CRC format (1:3 dilutions) in 100% DMSO with a starting concentration of 10 mM using the BRAVO liquid handler (Agilent). Test compound CRCs were then transferred to daughter plates (240 nL) using the Echo acoustic plate reformatter (Labcyte, Sunnyvale, Calif.) and then diluted into assay buffer (40 μL) to a 2× stock using a Thermo Fisher Combi (Thermo Fisher Scientific, Waltham, Mass.).
(§3) Calcium flux was measured using the Functional Drug Screening System (FDSS) 6000 (Hamamatsu Corporation, Tokyo, Japan) as an increase in the fluorescent static ratio. Compounds were applied to cells (20 μL, 2×) using the automated system of the FDSS 6000 at 4 s into the 300 s protocol and the data were collected at 1 Hz. At 144 s into the 300s protocol, 10 μL of an EC20 concentration of the muscarinic receptor agonist acetylcholine was added (5×), followed by the addition of 12 μL an EC80 concentration of acetylcholine at the 230 s time point (5×). Agonist activity was analyzed as a concentration-dependent increase in calcium mobilization upon compound addition. Emax values for agonist activity are expressed relative to the maximum for acetylcholine. Positive allosteric modulator activity was analyzed as a concentration-dependent increase in the EC20 acetylcholine response. Antagonist activity was analyzed as a concentration-dependent decrease in the EC80 acetylcholine response. Concentration-response curves were generated using a four-parameter logistical equation in XLfit curve fitting software (IDBS, Bridgewater, N.J.) for Excel (Microsoft, Redmond, Wash.) or Prism (GraphPad Software, Inc., San Diego, Calif.). […]

human mAChR M1 [2] = biological target: T1, human mAChR M1; experiment: mAChR M1 cell-based functional assay (calcium mobilization), agonist activity upon compound addition; details: CHO-K1 cells expressing hM1; for EC50: compound alone, before acetylcholine addition; for Emax: relative to the maximum for acetylcholine
Description: as §1, §2, §3

EC50 (human mAChR M1 [1])	Emax (human mAChR M1 [1])	EC50 (human mAChR M1 [2])	Emax (human mAChR M1 [2])	Structure (SMILES)
0.13 µM	67%	3 µM	55%	Cn1ccc(-c2ccc(Cn3cc(C(=O)N[C@H]4CCOC[C@@H]4O)c4nccn4c3=O)c(F)c2)n1 [Compound B1, 6-(2-fluoro-4-(1-methyl-1H-pyrazol-3-yl)benzyl)-N-((3R,4S)-3-hydroxytetrahydro-2H-pyran-4-yl)-5-oxo-5,6-dihydroimidazo[1,2-c]pyrimidine-8-carboxamide]
4.02 µM	67%	> 10 µM	< 5%	Cn1cc(-c2ccc(Cn3cc(C(=O)N[C@H]4CCOC[C@@H]4O)c4occc4c3=O)c(F)c2)cn1 [Compound D12, 5-(2-fluoro-4-(1-methyl-1H-pyrazol-4-yl)benzyl)-N-((3R,4S)-3-hydroxytetrahydro-2H-pyran-4-yl)-4-oxo-4,5-dihydrofuro[3,2-c]pyridine-7-carboxamide]
0.093 µM	84%	5.27 µM	24%	Cn1cc2c(-c3cc(F)c(Cn4cc(C(=O)N[C@H]5CCOC[C@@H]5O)c5nccn5c4=O)c(F)c3)cccc2n1 [Compound B18, 6-(2,6-difluoro-4-(2-methyl-2H-indazol-4-yl)benzyl)-N-((3R,4S)-3-hydroxytetrahydro-2H-pyran-4-yl)-5-oxo-5,6-dihydroimidazo[1,2-c]pyrimidine-8-carboxamide]
2.48 µM	70%	> 10 µM	< 5%	Cn1cc2c(-c3cc(F)c(Cn4cc(C(=O)NC5CC6(COC6)C5)c5occc5c4=O)c(F)c3)cccc2n1 [Compound D24, 5-(2,6-difluoro-4-(2-methyl-2H-indazol-4-yl)benzyl)-4-oxo-N-(2-oxaspiro[3.3]heptan-6-yl)-4,5-dihydrofuro[3,2-c]pyridine-7-carboxamide]
0.24 µM	51%	2.79 µM	63%	Cn1cc2c(-c3cc(F)c(Cn4cc(C(=O)N[C@H]5CCCC[C@@H]5O)c5nccn5c4=O)c(F)c3)cccc2n1 [Compound B20, 6-(2,6-difluoro-4-(2-methyl-2H-indazol-4-yl)benzyl)-N-((1S,2S)-2-hydroxycyclohexyl)-5-oxo-5,6-dihydroimidazo[1,2-c]pyrimidine-8-carboxamide]
2 µM	72%		29%	Cn1cc(-c2ccc(Cn3cc(C(=O)N[C@@H]4CC[C@H]4O)c4nccn4c3=O)c(F)c2)cn1 [Compound B8, 6-(2-fluoro-4-(1-methyl-1H-pyrazol-4-yl)benzyl)-N-((1R,2R)-2-hydroxycyclobutyl)-5-oxo-5,6-dihydroimidazo[1,2-c]pyrimidine-8-carboxamide]
1.25 µM	78%	> 10 µM	< 5%	Cn1nccc1-c1cc(F)c(Cn2cc(C(=O)N[C@H]3CCOC[C@@H]3O)c3nccn3c2=O)c(F)c1 [Compound B36, 6-(2,6-difluoro-4-(1-methyl-1H-pyrazol-5-yl)benzyl)-N-((3R,4S)-3-hydroxytetrahydro-2H-pyran-4-yl)-5-oxo-5,6-dihydroimidazo[1,2-c]pyrimidine-8-carboxamide]
7.85 µM	39%	> 10 µM	< 5%	Cc1cn2c(=O)n(Cc3ccc(-c4cnn(C)c4)cc3F)cc(C(=O)N[C@H]3CCOC[C@@H]3O)c2n1 [Compound B23, 6-(2-Fluoro-4-(1-methyl-1H-pyrazol-4-yl)benzyl)-N-((3R,4S)-3-hydroxytetrahydro-2H-pyran-4-yl)-2-methyl-5-oxo-5,6-dihydroimidazo[1,2-c]pyrimidine-8-carboxamide]

The remaining lines, values behind:

Structure (SMILES)	EC50 (human mAChR M1 [1])	Emax (human mAChR M1 [1])	EC50 (human mAChR M1 [2])	Emax (human mAChR M1 [2])
Cn1cc(-c2ccc(Cn3cc(C(=O)N[C@H]4CCOC[C@@H]4O)c4ncncc4c3=O)c(F)c2)cn1 [Compound A90, 6-(2-fluoro-4-(1-methyl-1H-pyrazol-4-yl)benzyl)-N-((3R,4S)-3-hydroxytetrahydro-2H-pyran-4-yl)-5-oxo-5,6-dihydropyrido[4,3-d]pyrimidine-8-carboxamide]	≥ 10 µM	47%	> 10 µM	< 5%
O=C(N[C@H]1CCOC[C@@H]1O)c1cn(Cc2ccc(-n3cccn3)cc2)c(=O)c2nccnc12 [Compound A56, 6-(4-(1H-pyrazol-1-yl)benzyl)-N-((3R,4S)-3-hydroxytetrahydro-2H-pyran-4-yl)-5-oxo-5,6-dihydropyrido[3,4-b]pyrazine-8-carboxamide]	≥ 10 µM	61%	> 10 µM	< 5%
Cn1cc(-c2ccc(Cn3cc(C(=O)NC4CC5(COC5)C4)c4ncccc4c3=O)c(F)c2)cn1 [Compound A11, 6-(2-fluoro-4-(1-methyl-1H-pyrazol-4-yl)benzyl)-5-oxo-N-(2-oxaspiro[3.3]heptan-6-yl)-5,6-dihydro-1,6-naphthyridine-8-carboxamide]	6.75 µM	58%	> 10 µM	< 5%
Cc1cc(-c2cc(F)c(Cn3cc(C(=O)N[C@H]4CCC[C@@H]4O)c4ncccc4c3=O)c(F)c2)ccn1 [Compound A38, 6-(2,6-difluoro-4-(2-methylpyridin-4-yl)benzyl)-N-((1S,2S)-2-hydroxycyclopentyl)-5-oxo-5,6-dihydro-1,6-naphthyridine-8-carboxamide]	0.57 µM	25%	> 10 µM	< 5%
Cn1cc(-c2ccc(Cn3cc(C(=O)N[C@H]4CCCC[C@@H]4O)c4nccnc4c3=O)c(F)c2)cn1 [Compound A54, 6-(2-fluoro-4-(1-methyl-1H-pyrazol-4-yl)benzyl)-N-((1S,2S)-2-hydroxycyclohexyl)-5-oxo-5,6-dihydropyrido[3,4-b]pyrazine-8-carboxamide]	2.37 µM	62%	> 10 µM	26%
Cc1ncc(-c2cc(F)c(Cn3cc(C(=O)N[C@H]4CCOC[C@@H]4O)c4ncccc4c3=O)c(F)c2)s1 [Compound A51, 6-(2,6-difluoro-4-(2-methylthiazol-5-yl)benzyl)-N-((3R,4S)-3-hydroxytetrahydro-2H-pyran-4-yl)-5-oxo-5,6-dihydro-1,6-naphthyridine-8-carboxamide]	1.68 µM	75%	> 10 µM	< 5%
O=C(N[C@H]1CCC[C@@H]1O)c1cn(Cc2ccc(-n3cccn3)cc2)c(=O)c2nccnc12 [Compound A61, 6-(4-(1H-pyrazol-1-yl)benzyl)-N-((1S,2S)-2-hydroxycyclopentyl)-5-oxo-5,6-dihydropyrido[3,4-b]pyrazine-8-carboxamide]	≥ 10 µM	33%	> 10 µM	< 5%
